Columns and labels:
Assay type in all cases: in vivo, human
[1] = test system: patients with intermediate-risk prostate cancer; test: Example 9: quality of life (EORTC QLQ-C30, QLQ-PR25, AMS)
Description: Eligible male patients were aged ≥18 years with a histologically confirmed diagnosis of localized, intermediate-risk prostate cancer, for whom 6-month neoadjuvant and adjuvant androgen deprivation therapy (ADT) to external beam radiation therapy (EBRT) was indicated. The criteria for establishing intermediate-risk prostate cancer included the presence of one of the following, without any high-risk feature: T2b-T2c disease, Gleason score 7, or prostate-specific antigen (PSA) 10-20 ng/mL. Additional inclusion criteria included: EBRT scheduled to begin ≥12 weeks after baseline visit; screening serum testosterone >150 ng/dL (5.2 nmol/L); screening PSA concentration >2 ng/ml; body mass index ≥18.0 at screening or baseline (i.e., the subject's BMI prior to treatment commencing); Eastern Cooperative Oncology Group performance status of 0 or 1 at screening. Based on investigator discretion and clinical assessment of the patient's overall medical and disease status, participation was allowed for older patients with high-risk disease (e.g., based on Gleason score or tumor status) who were deemed likely to benefit from 6 months of neoadjuvant/adjuvant ADT. Most patients had intermediate-risk disease. However, a few patients, based on Gleason score or tumor, node, and metastasis staging system, were technically of higher than intermediate risk.
Both treatment arms received treatment for 24 weeks. Patients remained on treatment for at least 12 weeks before the start of external beam radiation treatment (EBRT), which was initiated for most patients between Week 13, Day 1 and Week 15, Day 1. EBRT began no later than day 1, week 17.
Quality of Life (QoL) was assessed via the core 30-item European Organisation for Research and Treatment of Cancer quality of life questionnaire (EORTC QLQ-C30), the 25-item prostate cancer module EORTC questionnaire (EORTC QLQ-PR25), and the aging male survey (AMS). QoL assessments were completed at screening, on day 1 of weeks 1, 5, 13, and 25, and at weeks 29, 33, and 37.

LH = test: Example 9: LH
Description: Eligible male patients were aged ≥18 years with a histologically confirmed diagnosis of localized, intermediate-risk prostate cancer, for whom 6-month neoadjuvant and adjuvant androgen deprivation therapy (ADT) to external beam radiation therapy (EBRT) was indicated. The criteria for establishing intermediate-risk prostate cancer included the presence of one of the following, without any high-risk feature: T2b-T2c disease, Gleason score 7, or prostate-specific antigen (PSA) 10-20 ng/mL. […] Based on investigator discretion and clinical assessment of the patient's overall medical and disease status, participation was allowed for older patients with high-risk disease (e.g., based on Gleason score or tumor status) who were deemed likely to benefit from 6 months of neoadjuvant/adjuvant ADT.
Both treatment arms received treatment for 24 weeks. […] EBRT began no later than day 1, week 17.
Patients were evaluated every 4 weeks during the treatment period (including day 1, week 25), at end of treatment (defined as week 29), during follow-up (week 33), and at end of study (EOS).
Samples for testosterone, luteinizing hormone (LH), FSH, and PSA concentrations were taken at screening, on day 1 of the first week (additionally days 2 and 4 for testosterone and LH), and on day 1 of weeks 2, 3, 5, 9, 13, 17, 21, 25, 29, 33, and 37 thereafter.

PSA = test: Example 8: PSA response
Excerpt: Eligible men were aged ≥18 years with a histologically confirmed diagnosis of prostate adenocarcinoma, and were candidates for ADT for the management of hormone-sensitive prostate cancer with one of the following clinical disease states: advanced localized disease not suitable for primary surgical or radiation therapy; evidence of PSA biochemical or clinical relapse following primary surgery or radiation therapy of curative intent; or newly diagnosed metastatic disease that was asymptomatic and without visceral involvement. Additional inclusion criteria at screening included: eugonadal serum testosterone >150 ng/dl (5.2 nmol/L); serum PSA concentration >2 ng/ml (or, when applicable, >0.2 ng/ml following radical prostatectomy or >2 ng/mL above the post-radiotherapy nadir following radiotherapy); body mass index ≥18.0 at screening and/or baseline (i.e., the subject's BMI prior to treatment commencing); and Eastern Cooperative Oncology Group (ECOG) performance status of 0 or 1. Patients with advanced, localized MON1 or M1 disease with clinically significant symptoms or visceral involvement, who required immediate GnRH therapy, chemotherapy, or radiation therapy were not eligible for the trial.
PSA levels were measured at each visit.

serum PSA = test: Example 6: serum PSA (CLEIA)
Description: This study consisted of two parts: Part A, a dose-rising phase, and Part B, an expansion phase. Whether or not the study would proceed to the next cohort or to Part B was determined through assessment of tolerability at the present dose, based on the incidence of adverse effects during the evaluation period.
Subjects in Cohort 1 received a load dose of 320 mg and a maintenance dose of 80 mg; subjects in Cohort 2 received a load dose of 320 mg and a maintenance dose of 120 mg; subjects in Cohort 3 received a load dose of 320 mg and a maintenance dose of 160 mg; and subjects in Cohort 4 received a load dose of 360 mg and a maintenance dose of 120 mg.
In addition to the safety assessments, efficacy assessments were also performed according to the study schedule, and the Compound 1 formulation was administered until each subject met the discontinuation criteria.

[2] = from baseline (day 1) to week 25
[3] = Part A Day 28, Cohort 1 (320 mg load, 80 mg QD)
[4] = Part A Day 28, Cohort 2 (320 mg load, 120 mg QD)
[5] = Part A Day 28, Cohort 3 (320 mg load, 160 mg QD)
[6] = Part B Week 13 Day 1 (LOCF), 120 mg group

## CONC(=O)Nc1ccc(-c2sc3c(c2CN(C)C)c(=O)n(-c2ccc(OC)nn2)c(=O)n3Cc2c(F)cccc2F)cc1 [Compound 1, N-(4-(1-(2,6-difluorobenzyl)-5-((dimethylamino)methyl)-3-(6-methoxy-3-pyridazinyl)-2,4-dioxo-1,2,3,4-tetrahydrothieno[2,3-d]pyrimidin-6-yl)phenyl)-N′-methoxyurea]
[1]; [2]
  Hormonal treatment-related symptoms, Mean (SD) change: 13.4 (12.1)
  Sexual activity, Mean (SD) change: −19.7 (29.4)
[1]; from baseline to week 36 (EOS)
  Global health/QoL, Mean (SD) change: −7.7 (17.8)
  Hormonal treatment-related symptoms, Mean (SD) change: 8.5 (11.3)
  Sexual activity, Mean (SD) change: −7.3 (30.0)
[1]; from week 25 to week 36
  Global health/QoL, Mean (SD) change: 2.3 (16.6)
  Hormonal treatment-related symptoms, Mean (SD) change: −5.0 (10.3)
  Sexual activity, Mean (SD) change: 12.1 (21.8)
[1]; in vivo
  QOL (AMS and sexual activity scores) from EOT through EOS: appeared to improve more in the Compound 1 than the degarelix group
LH; Baseline
  Median LH: 4.7 mlU/mL
LH; Week 24
  Median LH: 0.1 mlU/mL
LH; Week 25, Day 1
  mean LH level: 0.325 IU/L
LH; Week 28/EOT visit
  Median LH: 3.1 mlU/mL
LH; Week 32/follow-up
  Median LH: 8.3 mlU/mL
LH; Week 36/EOS
  Median LH: 10.7 mlU/mL
PSA; 80 mg QD
  Median time from first dose to PSA nadir: 16.1 Weeks
PSA; 120 mg QD
  Median time from first dose to PSA nadir: 12.3 Weeks
PSA; after 4 weeks of treatment
  patients with ≥50% serum PSA reduction: Eighty-three percent
  patients with ≥90% serum PSA reduction: Eight percent
PSA; by Week 13 Day 1 visit
  average PSA level: less than 0.4 ng/ml
PSA; by Week 21 Day 1 visit
  average PSA level: less than 0.2 ng/ml
PSA; end of 24 weeks dosing
  PSA % responses in most patients: exceed 90%
PSA; in vivo
  PSA response following initiation of treatment compared with leuprorelin: more rapid
Serum PSA; [3]
  mean percentage change from baseline in serum PSA: −76.37%
  median percentage change from baseline in serum PSA: −77.50%
Serum PSA; [4]
  mean percentage change from baseline in serum PSA: −60.10%
  median percentage change from baseline in serum PSA: −72.30%
Serum PSA; [5]
  mean percentage change from baseline in serum PSA: −32.10%
  median percentage change from baseline in serum PSA: −50.50%
Serum PSA; Part B Week 13 Day 1 (LOCF), 80 mg group
  median percentage change from baseline in serum PSA: −97.20%
Serum PSA; [6]
  mean percentage change from baseline in serum PSA: −93.11%
  median percentage change from baseline in serum PSA: −95.80%

Source: US12629370B2, “Treatment of prostate cancer” (Sumitomo Pharma Co., Ltd., priority 2016, dated 2026)
